# From paper PMC5053523, “In Vitro Antibacterial Activity of Rhodanine Derivatives against Pathogenic Clinical Isolates” (PLoS ONE, 2016)
# Where two headings read alike, the source gives them in different places.
# Experiments:
# Acinetobacter baumannii [1] = assay: Broth microdilution MIC, Acinetobacter baumannii; format: cell-based
# MRSA USA300 = assay: MIC against MRSA USA300 with and without 4% human serum albumin; format: cell-based, Staphylococcus aureus; conditions: Staphylococcus aureus, read-out: MIC against MRSA USA300
# Procedure, shortened: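 MIC measured in tryptic soy broth spiked with 4% HSA and without it, using CLSI broth microdilution on MRSA USA300. Value reported is the lowest concentration preventing bacterial growth.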
# Pseudomonas aeruginosa [2] = assay: MIC with/without PMBN, Pseudomonas aeruginosa; format: cell-based
# Procedure, shortened: (§1)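 Compounds plus sub-inhibitory colistin or PMBN; MIC against Gram-negatives, with control antibiotics in parallel.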
# Salmonella Typhimurium [3] = assay: MIC with/without PMBN, Salmonella Typhimurium; format: cell-based
# Procedure, shortened: as §1
# Mycobacterium smegmatis = assay: Broth microdilution MIC/MBC, Mycobacterium smegmatis; format: cell-based; conditions: Mycolicibacterium smegmatis, ATCC14468, M. Smegmatis ATCC 14468; for MBC: read-out: MBC; for MIC: read-out: MIC
# Pseudomonas aeruginosa [4] = assay: MIC with/without sub-MIC colistin, Pseudomonas aeruginosa; format: cell-based
# Procedure, shortened: as §1
# Escherichia coli O157:H7 = assay: MIC with/without PMBN, Escherichia coli O157:H7; format: cell-based
# Procedure, shortened: as §1
# Acinetobacter baumannii [5] = assay: MIC with/without sub-MIC colistin, Acinetobacter baumannii; format: cell-based
# Procedure, shortened: as §1
# Bacillus Strains = assay: Broth microdilution MIC50/MIC90 and MIC range, Bacillus strains panel; format: cell-based, Bacillus spp.; conditions: 10 Bacillus strains
# Source text: The broth microdilution technique was used, followed by subculturing on agar plates that were rhodanine—free. […] The MICs reported represent the lowest concentration of each compound necessary to inhibit bacterial growth and the MBCs represent the lowest concentration required to reduce the initial bacterial inoculum by ≥ 99.9%.
# Klebsiella pneumoniae = assay: MIC with/without sub-MIC colistin, Klebsiella pneumoniae; format: cell-based
# Procedure, shortened: as §1
# Escherichia coli Δ acrAB = assay: MIC against E. coli 1411 and AcrAB efflux pump deficient E. coli SM1411Δ acrAB; format: cell-based
# Procedure, shortened: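 Gram-negative MICs were determined for rhodanines alongside control antibiotics, each combined with sub-inhibitory colistin or PMBN. Further testing used the efflux-deficient E. coli SM1411ΔacrAB, missing the AcrAB multidrug pump.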
# P. aeruginosa = assay: Broth microdilution MIC, P. aeruginosa; format: cell-based; conditions: Pseudomonas aeruginosa
# B. cereus = assay: Broth microdilution MIC/MBC, B. cereus; format: cell-based; conditions: Bacillus cereus; for MBC: read-out: MBC; for MIC: read-out: MIC
# Source text: The broth microdilution technique was used, followed by subculturing on agar plates that were rhodanine—free.
# Salmonella Typhimurium [6] = assay: MIC with/without sub-MIC colistin, Salmonella Typhimurium; format: cell-based
# Procedure, shortened: as §1
# B. licheniformis = assay: Broth microdilution MIC/MBC, B. licheniformis; format: cell-based; conditions: Bacillus licheniformis; for MBC: read-out: MBC; for MIC: read-out: MIC
# Clostridium difficile = assay: MIC against Clostridium difficile, anaerobic broth dilution; format: cell-based; conditions: Clostridioides difficile
# Procedure, shortened: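 Clinical C. difficile isolates grown anaerobically 48 h at 37 °C, suspended to 0.5 McFarland and diluted 1:300 in pre-reduced supplemented Brain Heart Infusion broth. Compounds serially diluted; plates incubated anaerobically at 37 °C for 48 h. MIC = lowest concentration with no visible growth.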
# [7] = test system: vancomycin resistant enterococci (VRE); assay: Broth microdilution MIC50/MIC90, VRE panel; format: cell-based; conditions: Enterococcus, 10 VRE strains; for MIC90: VRE, read-out: MIC 90; for MIC50: read-out: MIC 50
# [8] = Pseudomonas aeruginosa ATCC 9721, PMBN (+) 4 μg/mL, read-out: MIC
# [9] = Pseudomonas aeruginosa, ATCC9721
# [10] = Salmonella Typhimurium ATCC 700720, PMBN (+) 4 μg/mL, read-out: MIC
# [11] = Salmonella enterica, ATCC 700720 / TYPHIMURIUM
# [12] = Pseudomonas aeruginosa ATCC 921, colistin (+) […], read-out: MIC
# [13] = Pseudomonas aeruginosa, ATCC921
# [14] = Escherichia coli O157:H7 ATCC 35150, PMBN (+) 4 μg/mL, read-out: MIC
# [15] = Escherichia coli O157:H7 ATCC 700728, PMBN (+) 4 μg/mL, read-out: MIC
# [16] = Acinetobacter baumannii ATCC BAA747, colistin (+) […], read-out: MIC
# [17] = Acinetobacter baumannii ATCC BAA19606, colistin (+) […], read-out: MIC
# [18] = Acinetobacter baumannii, ATCCBAA747
# [19] = Acinetobacter baumannii, ATCCBAA19606
# [20] = Klebsiella pneumoniae ATCC BAA 2146, colistin (+) […]
# [21] = E.coli 1411 SM (Δ acrAB, AcrAB efflux pump deficient)
# [22] = NRS201, B. cereus NRS 201 NR-2488
# [23] = Salmonella Typhimurium ATCC 700720, colistin (+) […], read-out: MIC
# [24] = NCIB9375, B. licheniformis Gibson 46 (NCIB 9375) NR-2494
# [25] = NRS712, B. licheniformis NRS 712 NR-2499
# [26] = C. difficile Isolate-1 NR-13427
# [27] = C. difficile Toxigenic Strain P8 NR-32888
smiles,measurement,setting,value
O=C(O)[C@H](Cc1ccccc1)N1C(=O)/C(=C/c2cccc(OC/C=C/c3ccc(Cl)c(Cl)c3)c2)SC1=S [Rh 6],MIC,Acinetobacter baumannii [1]; ATCC13345,> 128 µM
same,MIC,Acinetobacter baumannii [1]; ATCC17786,> 128 µM
same,MIC,"MRSA USA300; 24 h, Media TSB + 4% HSA",> 64 µM
same,MIC,MRSA USA300; Media TSB,8 µM
same,MIC,Pseudomonas aeruginosa [2]; [8],>64 µM
same,MIC,Pseudomonas aeruginosa [2]; [9],> 128 µM
same,MIC,Salmonella Typhimurium [3]; [10],>128 µM
same,MIC,Salmonella Typhimurium [3]; [11],> 128 µM
same,MBC,Mycobacterium smegmatis,32 µM
same,MIC,Mycobacterium smegmatis,16 µM
same,MIC,Pseudomonas aeruginosa [4]; [12],>64 µM
same,MIC,Pseudomonas aeruginosa [4]; [13],> 128 µM
same,MIC,Escherichia coli O157:H7; [14],8 µM
same,MIC,Escherichia coli O157:H7; [15],>64 µM
same,MIC,"Escherichia coli O157:H7; Escherichia coli, ATCC35150",> 256 µM
same,MIC,"Escherichia coli O157:H7; Escherichia coli, ATCC700728",> 128 µM
same,MIC,Acinetobacter baumannii [5]; [16],>64 µM
same,MIC,Acinetobacter baumannii [5]; [17],>64 µM
same,MIC,Acinetobacter baumannii [5]; [18],> 128 µM
same,MIC,Acinetobacter baumannii [5]; [19],> 128 µM
same,MIC50,Bacillus Strains,4 µM
same,MIC90,Bacillus Strains,4 µM
same,MIC,Klebsiella pneumoniae; [20],>64 µM
same,MIC,"Klebsiella pneumoniae; Klebsiella pneumoniae, BAA2146",> 128 µM
same,MIC,Escherichia coli Δ acrAB; E.coli 1411,> 64 µM
same,MIC,Escherichia coli Δ acrAB; [21],> 64 µM
same,MIC,P. aeruginosa; ATCC9721,> 128 µM
same,MIC,P. aeruginosa; ATCC15442,> 128 µM
same,MBC,B. cereus; B. cereus BAG1O-2 NR-28582,4 µM
same,MIC,B. cereus; B. cereus BAG1O-2 NR-28582,4 µM
same,MBC,B. cereus; B. cereus BAG1X1-1 NR-28575,4 µM
same,MIC,B. cereus; B. cereus BAG1X1-1 NR-28575,4 µM
same,MBC,B. cereus; B. cereus BAG1X2-1 NR-28578,4 µM
same,MIC,B. cereus; B. cereus BAG1X2-1 NR-28578,4 µM
same,MBC,B. cereus; B. cereus G9241 NR-9564,4 µM
same,MIC,B. cereus; B. cereus G9241 NR-9564,4 µM
same,MBC,B. cereus; B. cereus VD014 NR-22141,4 µM
same,MIC,B. cereus; B. cereus VD014 NR-22141,4 µM
same,MBC,B. cereus; B. cereus VD115 NR-22148,4 µM
same,MIC,B. cereus; B. cereus VD115 NR-22148,4 µM
same,MBC,B. cereus; B. cereus VD148 NR-22150,4 µM
same,MIC,B. cereus; B. cereus VD148 NR-22150,4 µM
same,MBC,B. cereus; [22],4 µM
same,MIC,B. cereus; [22],4 µM
same,MIC,Salmonella Typhimurium [6]; [23],>64 µM
same,MIC,Salmonella Typhimurium [6]; [11],> 128 µM
same,MBC,B. licheniformis; [24],4 µM
same,MIC,B. licheniformis; [24],4 µM
same,MBC,B. licheniformis; [25],4 µM
same,MIC,B. licheniformis; [25],4 µM
same,MIC,Clostridium difficile; C. difficile HM-88,4 µM
same,MIC,Clostridium difficile; C. difficile HM-745,4 µM
same,MIC,Clostridium difficile; C. difficile HM-746,2 µM
same,MIC,Clostridium difficile; [26],4 µM
same,MIC,Clostridium difficile; [27],8 µM
same,MIC90,[7],8 µM
same,MIC50,[7],8 µM
O=C(O)[C@@H](Cc1ccccc1)N1C(=O)/C(=C/c2cccc(Cc3ccccc3)c2)SC1=S [Rh 7],MIC,Acinetobacter baumannii [1]; ATCC13345,> 128 µM
same,MIC,Acinetobacter baumannii [1]; ATCC17786,> 128 µM
same,MIC,"MRSA USA300; 24 h, Media TSB + 4% HSA",> 64 µM
same,MIC,MRSA USA300; Media TSB,16 µM
same,MIC,Pseudomonas aeruginosa [2]; [8],>64 µM
same,MIC,Pseudomonas aeruginosa [2]; [9],> 128 µM
same,MIC,Salmonella Typhimurium [3]; [10],>128 µM
same,MIC,Salmonella Typhimurium [3]; [11],> 128 µM
same,MBC,Mycobacterium smegmatis,16 µM
same,MIC,Mycobacterium smegmatis,16 µM
same,MIC,Pseudomonas aeruginosa [4]; [12],>64 µM
same,MIC,Pseudomonas aeruginosa [4]; [13],> 128 µM
same,MIC,Escherichia coli O157:H7; [14],8 µM
same,MIC,Escherichia coli O157:H7; [15],>64 µM
same,MIC,"Escherichia coli O157:H7; Escherichia coli, ATCC35150",> 256 µM
same,MIC,"Escherichia coli O157:H7; Escherichia coli, ATCC700728",> 128 µM
same,MIC,Acinetobacter baumannii [5]; [16],>64 µM
same,MIC,Acinetobacter baumannii [5]; [17],>64 µM
same,MIC,Acinetobacter baumannii [5]; [18],> 128 µM
same,MIC,Acinetobacter baumannii [5]; [19],> 128 µM
same,MIC50,Bacillus Strains,4 µM
same,MIC90,Bacillus Strains,8 µM
same,MIC,Klebsiella pneumoniae; [20],>64 µM
same,MIC,"Klebsiella pneumoniae; Klebsiella pneumoniae, BAA2146",> 128 µM
same,MIC,Escherichia coli Δ acrAB; E.coli 1411,> 64 µM
same,MIC,Escherichia coli Δ acrAB; [21],> 64 µM
same,MIC,P. aeruginosa; ATCC9721,> 128 µM
same,MIC,P. aeruginosa; ATCC15442,> 128 µM
same,MBC,B. cereus; B. cereus BAG1O-2 NR-28582,4 µM
same,MIC,B. cereus; B. cereus BAG1O-2 NR-28582,4 µM
same,MBC,B. cereus; B. cereus BAG1X1-1 NR-28575,4 µM
same,MIC,B. cereus; B. cereus BAG1X1-1 NR-28575,2 µM
same,MBC,B. cereus; B. cereus BAG1X2-1 NR-28578,4 µM
same,MIC,B. cereus; B. cereus BAG1X2-1 NR-28578,4 µM
same,MBC,B. cereus; B. cereus G9241 NR-9564,8 µM
same,MIC,B. cereus; B. cereus G9241 NR-9564,8 µM
same,MBC,B. cereus; B. cereus VD014 NR-22141,4 µM
same,MIC,B. cereus; B. cereus VD014 NR-22141,4 µM
same,MBC,B. cereus; B. cereus VD115 NR-22148,4 µM
same,MIC,B. cereus; B. cereus VD115 NR-22148,4 µM
same,MBC,B. cereus; B. cereus VD148 NR-22150,4 µM
same,MIC,B. cereus; B. cereus VD148 NR-22150,4 µM
same,MBC,B. cereus; [22],4 µM
same,MIC,B. cereus; [22],4 µM
same,MIC,Salmonella Typhimurium [6]; [23],>64 µM
same,MIC,Salmonella Typhimurium [6]; [11],> 128 µM
same,MBC,B. licheniformis; [24],8 µM
same,MIC,B. licheniformis; [24],8 µM
same,MBC,B. licheniformis; [25],8 µM
same,MIC,B. licheniformis; [25],8 µM
same,MIC,Clostridium difficile; C. difficile HM-88,4 µM
same,MIC,Clostridium difficile; C. difficile HM-745,1 µM
same,MIC,Clostridium difficile; C. difficile HM-746,2 µM
same,MIC,Clostridium difficile; [26],4 µM
same,MIC,Clostridium difficile; [27],4 µM
same,MIC90,[7],16 µM
same,MIC50,[7],16 µM
